Measurements published in US20020169175A1, “Pharmaceutically acceptable salts of heterocyclic compounds” (DR. REDDY'S LABORATORIES LTD., priority 2001, published 2002).
Structures can show the parent of a compound that is named as a salt.

Experiments:
hPPARγ1 = target: T1, hPPARγ1 (Homo sapiens, UniProt P37231); assay: Determination of hPPARγ activity (GAL4 fusion luciferase reporter in transfected HEK-293 cells); type: cell-based; conditions: compound concentration 1 μM
T1 construct: expressed in transfected cells; host or cells: HEK-293
T1 sequence (P37231 238-503 limits assumed): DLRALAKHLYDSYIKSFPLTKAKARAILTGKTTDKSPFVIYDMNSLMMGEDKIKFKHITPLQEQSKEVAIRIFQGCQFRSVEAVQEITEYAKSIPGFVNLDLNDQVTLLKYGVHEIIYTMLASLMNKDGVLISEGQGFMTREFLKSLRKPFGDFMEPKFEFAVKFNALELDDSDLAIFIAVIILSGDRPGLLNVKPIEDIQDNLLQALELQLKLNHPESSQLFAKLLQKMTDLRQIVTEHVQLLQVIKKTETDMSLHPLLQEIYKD
Protocol: b) Determination of hPPARγ Activity
Ligand binding domain of hPPARγ1 was fused to DNA binding domain of Yeast transcription factor GAL4 in eucaryotic expression vector. Using lipofectamine (Gibco BRL, USA) as transfecting reagent HEK-293 cells were transfected with this plasmid and a reporter plasmid harboring the luciferase gene driven by a GAL4 specific promoter. Compound was added at 1 μM concentration after 48 hrs of transfection and incubated overnight. Luciferase activity as a function of drug binding/activation capacity of PPARγ1 was measured using Packard Luclite kit (Packard, USA) in Packard Top Count (Ivan Sadowski, Brendan Bell, Peter Broag and Melvyn Hollis. Gene. 1992. 118: 137-141; Guide to Eukaryotic Transfections with Cationic Lipid Reagents. Life Technologies, GIBCO BRL, USA).

C57BL/KsJ-db/db mice = assay: Efficacy in genetic models: blood sugar lowering in db/db mice; type: in vivo, mouse; conditions: 0.1 mg/kg oral gavage daily for 6 days
Text: a) Efficacy in Genetic Models
Mutation in colonies of laboratory animals and different sensitivities to dietary regimens have made the development of animal models with non-insulin dependent diabetes and hyperlipidemia associated with obesity and insulin resistance possible. Genetic models such as db/db and ob/ob (Diabetes, (1982) 31(1): 1-6) mice and zucker fa/fa rats have been developed by the various laboratories for understanding the pathophysiology of disease and testing the efficacy of new antidiabetic compounds (Diabetes, (1983) 32: 830-838; Annu. Rep. Sankyo Res. Lab. (1994). 46: 1-57). […]
The random blood sugar and triglyceride levels were measured by collecting blood (100 μl) through orbital sinus, using heparinised capillary in tubes containing EDTA which was centrifuged to obtain plasma. The plasma glucose and triglyceride levels were measured spectrometrically, by glucose oxidase and glycerol-3-PO4 oxidase/peroxidase enzyme (Dr. Reddy's Lab. Diagnostic Division Kits, Hyderabad, India) methods respectively.
The blood sugar and triglycerides lowering activities of the test compound was calculated according to the formula.
(§1) 1. Percent reduction in Blood sugar/triglycerides/total cholesterol were calculated according to the formula: [formula]

hPPARα = target: T2, hPPARα (Homo sapiens, UniProt Q07869); assay: Determination of hPPARα activity (GAL4 fusion luciferase reporter in transfected HEK-293 cells); type: cell-based; conditions: compound concentration 50 μM
T2 construct: expressed in transfected cells; host or cells: HEK-293
T2 sequence (Q07869 239-466 limits assumed): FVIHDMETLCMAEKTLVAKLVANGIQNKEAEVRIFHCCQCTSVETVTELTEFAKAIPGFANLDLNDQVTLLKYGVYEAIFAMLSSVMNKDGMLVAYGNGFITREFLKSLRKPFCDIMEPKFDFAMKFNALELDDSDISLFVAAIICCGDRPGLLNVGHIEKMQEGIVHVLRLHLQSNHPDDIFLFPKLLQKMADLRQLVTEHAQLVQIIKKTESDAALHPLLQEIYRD
Protocol: a) Determination of hPPARα Activity
Ligand binding domain of hPPARα was fused to DNA binding domain of Yeast transcription factor GAL4 in eucaryotic expression vector. Using superfect (Qiagen, Germany) as transfecting reagent HEK-293 cells were transfected with this plasmid and a reporter plasmid harboring the luciferase gene driven by a GAL4 specific promoter. Compound was added at different concentrations after 42 hrs of transfection and incubated overnight. Luciferase activity as a function of compound binding/activation capacity of PPARα was measured using Packard Luclite kit (Packard, USA) in Top Count (Ivan Sadowski, Brendan Bell, Peter Broag and Melvyn Hollis. Gene. 1992. 118: 137-141; Superfect Transfection Reagent Handbook. February 1997. Qiagen, Germany).

Swiss albino mice = assay: Plasma triglyceride and total cholesterol lowering activity in Swiss albino mice and Guinea pigs; type: in vivo, mouse; conditions: dose 0.3 mg/kg, oral, 6 days
Protocol: c) Plasma Triglyceride and Total Cholesterol Lowering Activity in Swiss Albino Mice and Guinea Pigs
Male Swiss albino mice (SAM) and male Guinea pigs were obtained from NIN and housed in DRF animal house. All these animals were maintained under 12 hour light and dark cycle at 25±1° C. Animals were given standard laboratory chow (NIN Hyderabad, India) and water, ad libitum. SAM of 20-25 g body weight range and Guinea pigs of 500-700 g body weight range were used (Oliver, P., Plancke, M. O., Marzin, D., Clavey, V., Sauzieres, J and Fruchart, J. C. Effects of fenofibrate, gemfibrozil and nicotinic acid on plasma lipoprotein levels in normal and hyperlipidemic mice. Atherosclerosis. 1988. 70: 107-114).
The test compounds were administered orally to Swiss albino mice at 0.3 to 30 mg/kg/day dose for 6 days. Control mice were treated with vehicle (0.25% Carboxymethylcellulose; dose 10 ml/kg). The test compounds were administered orally to Guinea pigs at 0.3 to 30 mg/kg/day dose for 6 days. Control animals were treated with vehicle (0.25% Carboxymethylcellulose; dose 5 ml/kg).
The blood samples were collected in fed state 1 hour after drug administration on 0 and 6 day of treatment. The blood was collected from the retro-orbital sinus through heparinised capillary in EDTA containing tubes. After centrifugation, plasma sample was separated for triglyceride and total cholesterol (Wieland, O. Methods of Enzymatic analysis. Bergermeyer, H. O., Ed., 1963. 211-214; Trinder, P. Ann. Clin. Biochem. 1969. 6: 24-27). Measurement of plasma triglyceride, total cholesterol and HDL were done using commercial kits (Dr. Reddy's Diagnostic Division, Hyderabad, India).
as §1

CCO[C@@H](Cc1ccc(OCCn2c(CC)nc3ccccc3c2=O)cc1)C(=O)O [Example 11, (−)-3-[4-[2-(2-Ethyl-4-oxo-3,4-dihydroquinazolin-3-yl)ethoxy]phenyl]-2-ethoxypropanoic acid arginine salt]
PPARγ (hPPARγ1): 27.0
Reduction in Blood Glucose Level (%) (C57BL/KsJ-db/db mice): 61%
PPARα (hPPARα): 13.8
Triglyceride Lowering (%) (Swiss albino mice): 58%
